ChEMBL document CHEMBL3045353, “Identification of new limonoids from Swietenia and their biological activity against insects” (Pest Manag Sci, 2010)
Converted amounts (≈) assume the structure as drawn.

What was measured:
[1] = test system: Heliothis virescens; assay: Growth inhibition of neonate larvae of Heliothis virescens (tobacco budworm) at 250 mg/l after 6 days relative to control; format: functional; details: 144 h, read-out: GI
[2] = test system: Manduca sexta; assay: Growth inhibition of neonate larvae of Manduca sexta at 250 mg/l after 6 days relative to control; format: functional; details: 144 h, read-out: GI
[3] = test system: Helicoverpa zea; assay: Growth inhibition of neonate larvae of Helicoverpa zea (corn earworm)at 250 mg/l after 6 days relative to control; format: functional; details: 144 h, read-out: GI
[4] = test system: Spodoptera frugiperda; assay: Antifeedant activity against fourth-instar larvae of Spodoptera frugiperda (fall armyworm) fed on compound treated savanna grass for 18 hr; format: functional, organism-based
[5] = test system: Spodoptera frugiperda; assay: Phagostimulant activity in fourth-instar larvae of Spodoptera frugiperda (fall armyworm) fed on compound treated savanna grass for 18 hr; format: ADME, organism-based; details: in vivo, po

| Compound | inhibition of growth at 250 µg/mL [1] | inhibition of growth at 250 µg/mL [2] | inhibition of growth at 250 µg/mL [3] | DC50 [4] | Activity [5] |
| --- | --- | --- | --- | --- | --- |
| C/C=C(\C)OC(=O)[C@H]1C(C)(C)[C@H]([C@@H](O)C(=O)OC)[C@]2(C)C(=O)[C@@]1(O)C=C1[C@@H]3CC(=O)O[C@@H](c4ccoc4)[C@]3(C)CC[C@@H]12 [2-HYDROXYSWIETENINE] | 62.6% | 31.7% | 28.2% | 65.8 µg/mL (≈ 113 µM) | – |
| COC(=O)[C@H](O)[C@H]1C(C)(C)[C@H](C(=O)OC(C)C)[C@@H]2CC3=C4CC(=O)O[C@@H](c5ccoc5)[C@]4(C)CC[C@@H]3[C@@]1(C)C2=O [3-O-ISOBUTYRYLSWIETENOLIDE] | 35.1% | 45.9% | 33.1% | 0.009 µg/mL (≈ 0.0162 µM) | – |
| COC(=O)[C@H](O)[C@H]1C(C)(C)[C@H](C(=O)Oc2ccccc2)[C@@H]2CC3=C4CC(=O)O[C@@H](c5ccoc5)[C@]4(C)CC[C@@H]3[C@@]1(C)C2=O [3-O-BENZOYLSWIETENOLIDE] | – | – | – | 244 µg/mL (≈ 414 µM) | – |
| COC(=O)[C@H](C(=O)Oc1ccccc1)[C@H]1C(C)(C)[C@H](C(=O)Oc2ccccc2)[C@]2(O)C=C3[C@@H]4CC(=O)O[C@@H](c5ccoc5)[C@]4(C)CC[C@@H]3[C@@]1(C)C2=O [3,6-O,ODIBENZOYL-3-DETIGLOYL-2-HYDROXYISOSWIETENINE] | 33.8% | 6.24% | 13.5% | 233 µg/mL (≈ 328 µM) | – |
| CCOC(=O)[C@@H](C(=O)OC)[C@H]1C(C)(C)[C@H](C(=O)OCC)[C@@H]2CC3=C4CC(=O)O[C@@H](c5ccoc5)[C@]4(C)CC[C@@H]3[C@@]1(C)C2=O [O,O-DIPROPIONYLSWIETENOLIDE] | 52.7% | 32.7% | 20.8% | 45.5 µg/mL (≈ 76 µM) | – |
| C/C=C(\C)OC(=O)[C@@H]1[C@@H]2C=C3[C@@H]4CC(=O)O[C@@H](c5ccoc5)[C@]4(C)CC[C@@H]3[C@@](C)(C2=O)[C@@H]([C@H](C(=O)OC)C(=O)Oc2ccccc2)C1(C)C [6-O-BENZOYLSWIETENINE] | 28.7% | 32.8% | 10.2% | 406 µg/mL (≈ 604 µM) | – |
| CCOC(=O)[C@@H](C(=O)OC)[C@H]1C(C)(C)[C@H](C(=O)OCC)[C@]2(O)C=C3[C@@H]4CC(=O)O[C@@H](c5ccoc5)[C@]4(C)CC[C@@H]3[C@@]1(C)C2=O [3,6-O,O-DIPROPIONYL-3-DETIGLOYL-2-HYDROXYISOSWIETENINE] | 17.5% | 15.8% | 32.7% | 159 µg/mL (≈ 259 µM) | – |
| CC1(C)[C@H](O)[C@@H]2CC3=C4CC(=O)O[C@@H](c5ccoc5)[C@]4(C)CC[C@@H]3[C@@](C)(C2=O)[C@H]1[C@@H](O)C(=O)OO [DEMETHYLISOSWIETENOLIDE] | 32.6% | 9.01% | 24% | 254 µg/mL (≈ 520 µM) | – |
| COC(=O)COC(=O)[C@@H]1[C@@H]2CC3=C4CC(=O)O[C@@H](c5ccoc5)[C@]4(C)CC[C@@H]3[C@@](C)(C2=O)[C@@H]([C@@H](O)C(=O)OC)C1(C)C [3-O-ACETOXYACETYLSWIETENOLIDE] | 19% | 35.9% | 30.2% | 12.4 µg/mL (≈ 21.1 µM) | – |
| COC(=O)[C@H](C(=O)Oc1ccccc1)[C@H]1C(C)(C)[C@H](C(=O)Oc2ccccc2)[C@@H]2C=C3[C@@H]4CC(=O)O[C@@H](c5ccoc5)[C@]4(C)CC[C@@H]3[C@@]1(C)C2=O [3,6-O,O-DIBENZOYL-3-DETIGLOYLISOSWIETENINE] | 18.6% | 25.7% | 49.2% | – | Toxic |
| CCOC(=O)[C@@H]1[C@@H]2CC3=C4CC(=O)O[C@@H](c5ccoc5)[C@]4(C)CC[C@@H]3[C@@](C)(C2=O)[C@@H]([C@@H](O)C(=O)OC)C1(C)C [3-O-PROPIONYLSWIETENOLIDE] | 41.7% | 18.3% | 16.6% | 53.8 µg/mL (≈ 99.1 µM) | – |
| COC(=O)[C@H](O)[C@H]1C(C)(C)[C@H](C(=O)Oc2ccccc2)[C@@H]2C=C3[C@@H]4CC(=O)O[C@@H](c5ccoc5)[C@]4(C)CC[C@@H]3[C@@]1(C)C2=O [3-O-BENZOYL-3-DETIGLOYLISOSWIETENINE] | 57.8% | 8.18% | 27.1% | 254 µg/mL (≈ 430 µM) | – |
| CCOC(=O)[C@@H](C(=O)OC)[C@H]1C(C)(C)[C@H](O)[C@@H]2CC3=C4CC(=O)O[C@@H](c5ccoc5)[C@]4(C)CC[C@@H]3[C@@]1(C)C2=O [6-O-PROPIONYLSWIETENOLIDE] | 62.6% | 21.4% | 27.1% | 57.1 µg/mL (≈ 105 µM) | – |
| COC(=O)[C@H](O)[C@H]1C(C)(C)[C@H](O)[C@]2(O)C=C3[C@@H]4CC(=O)O[C@@H](c5ccoc5)[C@]4(C)CC[C@@H]3[C@@]1(C)C2=O [3-DETIGLOYL-2-HYDROXYISOSWIETENINE] | 15.8% | 29.2% | 22.4% | 188 µg/mL (≈ 374 µM) | – |
| COC(=O)[C@H](C(=O)Oc1ccccc1)[C@H]1C(C)(C)[C@H](C(=O)Oc2ccccc2)[C@@H]2CC3=C4CC(=O)O[C@@H](c5ccoc5)[C@]4(C)CC[C@@H]3[C@@]1(C)C2=O [3,6-O,O-DIBENZOYLSWIETENOLIDE] | – | – | – | 416 µg/mL (≈ 599 µM) | – |
| COC(=O)[C@H](C(=O)Oc1ccccc1)[C@H]1C(C)(C)[C@H](O)[C@@H]2CC3=C4CC(=O)O[C@@H](c5ccoc5)[C@]4(C)CC[C@@H]3[C@@]1(C)C2=O [6-O-BENZOYLSWIETENOLIDE] | 27.1% | 43.8% | 39.5% | 73.2 µg/mL (≈ 124 µM) | – |
| CC1(C)[C@H]([C@@H](O)C(=O)O)[C@]2(C)C(=O)[C@@](O)(C=C3[C@@H]4CC(=O)O[C@@H](c5ccoc5)[C@]4(C)CC[C@@H]32)[C@H]1O [DEMETHYL-3-DETIGLOYL-2-HYDROXYISOSWIETENINE] | 24.5% | 13.2% | 11.1% | > 10000 µg/mL | – |
| COC(=O)C(O)[C@H]1C(C)(C)[C@@H](O)[C@@H]2C(=O)[C@]1(C)[C@H]1CC[C@]3(C)[C@@H](CC(=O)O[C@H]3c3ccoc3)[C@]13O[C@@H]23 (stereo partly specified) [3-DETIGLOYLISOSWIETEMAHONIN G] | 49.1% | 45.1% | 54.6% | 107 µg/mL (≈ 213 µM) | – |
| COC(=O)[C@H](O)[C@H]1C(C)(C)[C@H](C(=O)OCC(C)C)[C@@H]2CC3=C4CC(=O)O[C@@H](c5ccoc5)[C@]4(C)CC[C@@H]3[C@@]1(C)C2=O [3-O-ISOVALERYLSWIETENOLIDE] | 54.5% | 23.7% | 26.2% | 0.19 µg/mL (≈ 0.333 µM) | – |
| CCOC(=O)[C@@H]1[C@@H]2C=C3[C@@H]4CC(=O)O[C@@H](c5ccoc5)[C@]4(C)CC[C@@H]3[C@@](C)(C2=O)[C@@H]([C@@H](O)C(=O)OC)C1(C)C [3-O-PROPIONYL-3-DETIGLOYLISOSWIETENINE] | 32% | 12.5% | 13.5% | 81.9 µg/mL (≈ 151 µM) | – |
| CC1(C)[C@H](O)[C@@H]2C=C3[C@@H]4CC(=O)O[C@@H](c5ccoc5)[C@]4(C)CC[C@@H]3[C@@](C)(C2=O)[C@H]1[C@@H](O)C(=O)O [DEMETHYL-3-DETIGLOYLISOSWIETENINE] | 10.2% | 14.1% | 21.6% | 214 µg/mL (≈ 454 µM) | – |
| COC(=O)[C@H](O)[C@H]1C(C)(C)[C@H](O)[C@@H]2C=C3[C@@H]4CC(=O)O[C@@H](c5ccoc5)[C@]4(C)CC[C@@H]3[C@@]1(C)C2=O [3-DETIGLOYLISOSWIETENINE] | 56% | 17.8% | 15.2% | 101 µg/mL (≈ 208 µM) | – |
| C/C=C(\C)OC(=O)[C@H]1[C@@H]2C(=O)[C@](C)([C@H]3CC[C@]4(C)[C@@H](CC(=O)O[C@H]4c4ccoc4)[C@]34O[C@@H]24)[C@@H](C(O)C(=O)OC)C1(C)C (stereo partly specified) [SWIETEMAHONIN G] | 44.3% | 32.8% | 48.1% | 13.8 µg/mL (≈ 23.6 µM) | – |
